Data taken from patent US9475841B2, “Melanoma antigen peptide and uses thereof” (INSERM (INSTITUT NATIONAL DE LA SANTE ET DE LA RECHERCHE …, priority 2012, dated 2016).
Residues, ends and D or L forms follow the SMILES beside them.

What was measured:
[1] = test system: DQ2-restricted T cell clone 4E2
[2] = test system: DQ2-restricted 9C12 T cell clone; settings: 5 h
[3] = test system: DRβ1*1101 restricted T cell clone 1A5; settings: 5 h
[4] = test system: MELOE-1 specific CD4 T cell clones; experiment: Processing of epitopes by autologous DC loaded with antigen; TNF-α production of T cell clones; type: cell-based, human
Method: FIG. 4: Class II epitopes are naturally processed from MELOE-1 whole antigen. Autologous DC, were loaded (before or after fixation) with MELOE-12-46 (1 μM) or, as a negative control, with Melan-A16-40L peptide (1 μM), and matured. T cell clones were then stimulated with DC at a ratio 1:1, during 5 h in presence of Brefeldin A, then stained with APC-conjugated anti-CD3 mAb, fixed with 4% paraformaldehyde, labeled with PE-conjugated anti-TNF-α mAb and analyzed by flow cytometry. Histograms illustrated the % of TNF-α producing cells among CD3 positive T cells.
Monocytes were purified from PBMC of healthy donors by a CD14-enrichment kit, according the recommendations of the supplier (Stem Cell, France). Immature dendritic cells (iDC) were generated by culturing monocytes in RPMI supplemented with 20 mg/mL of human albumin, 1000 IU/mL of GM-CSF and 200 IU/mL of IL-4 for 5 days. Then, iDC were pulsed with the whole MELOE-1 (1 μM) protein or the modified Melan-A16-40 A27L as negative control (1 μM) and matured with 20 ng/mL of TNF-α and 50 μg/mL of PolyI:C for 4 hours at 37° C. Finally they were fixed for 1 minute with PBS/0.015% glutaraldehyde. Alternatively, iDC were first matured, fixed and then pulsed with antigens at the same concentration.
Alternatively, MELOE-1 specific CD4+ T cell clones were stimulated by autologous MELOE-1 loaded and matured DC at a 1:1 ratio. […]

[5] = test system: DRβ1*0101 restricted T cell clone 5F9; experiment: Minimal peptides recognized by CD4 T cell clone (peptide titration, TNF-α production); type: cell-based, human; settings: 5F9 T cell clone; 13-mer peptides
Method: FIG. 5: Minimal peptides recognized by MELOE-1 specific CD4 T cell clones. MELOE-1 specific CD4 T cell clones were incubated with various concentrations of the indicated peptides during 5 hours in presence of Brefeldin A. TNF-α production was assessed by intracellular labeling with an anti-TNF-α specific antibody. The core peptide sequence is indicated in bold on each figure panel, and black circles illustrate the best fitting peptide.
Our T cell clones were reactive against 20-mer peptides that are probably not the exact peptides naturally processed. In order to formally identify the minimal recognized epitopes, we tested shorter peptides derived from each of the MELOE-1 recognized regions, chosen on the basis of the core peptide sequence supposed to be recognized by the T cell clones (indicated in bold on FIG. 5).
Three shorter peptides were better recognized by the DQ2-restricted 9C12 T cell clone, the shortest one being MELOE-17-19 (13-mer), recognized with an EC50 of 100 nM. The deletion of the two amino acids in C-term strongly reduces T cell clone recognition. […] Nonetheless all of these clones recognized a series of shortened peptides, thus we cannot formally assess that the shortest ones will be the exact peptides naturally presented on class II molecules.

For CC[C@H](C)[C@H](NC(=O)[C@H](CCCNC(=N)N)NC(=O)[C@@H](N)CCC(=O)O)C(=O)N[C@@H](CO)C(=O)N[C@@H](CO)C(=O)N[C@H](C(=O)N[C@@H](CC(C)C)C(=O)N[C@@H](CC(N)=O)C(=O)N[C@@H](CC(=O)O)C(=O)N[C@@H](CCC(=O)O)C(=O)N[C@@H](CS)C(=O)N[C@@H](Cc1c[nH]c2ccccc12)C(=O)N1CCC[C@H]1C(=O)N[C@@H](C)C(=O)O)[C@@H](C)O [31-44, ERISSTLNDECWPA] (H-ERISSTLNDECWPA-OH; N-terminus and C-terminus assumed), the EC50 ([1]; 5 h) was 0.1 µM.
In the case of CC(C)C[C@H](NC(=O)[C@H](Cc1ccccc1)NC(=O)[C@H](CCC(N)=O)NC(=O)[C@H](CCC(=O)O)NC(=O)[C@H](CCCNC(=N)N)NC(=O)[C@H](CO)NC(=O)[C@@H](NC(=O)[C@H](C)NC(=O)[C@H](CCC(=O)O)NC(=O)[C@H](CC(=O)O)NC(=O)[C@@H]1CCCN1)[C@@H](C)O)C(=O)N1CCC[C@H]1C(=O)N[C@@H](CO)C(=O)O [MELOE-17-19, PDEATSREQFLPS] (H-PDEATSREQFLPS-OH; N-terminus and C-terminus assumed), the EC50 [2] is reported as 0.1 µM.
In the case of CC(C)C[C@H](NC(=O)[C@H](Cc1ccccc1)NC(=O)[C@@H](N)CCC(N)=O)C(=O)N1CCC[C@H]1C(=O)N[C@@H](CO)C(=O)N[C@@H](CCC(=O)O)C(=O)NCC(=O)N[C@@H](C)C(=O)N[C@@H](C)C(=O)N[C@@H](CS)C(=O)N1CCC[C@H]1C(=O)N1CCC[C@H]1C(=O)N[C@@H](Cc1c[nH]c2ccccc12)C(=O)O [MELOE-115-27, QFLPSEGAACPPW] (H-QFLPSEGAACPPW-OH; N-terminus and C-terminus assumed), the EC50 [3] is reported as 0.1 µM.
“MSCVGYPDEATSREQFLPSEGAACPPWHPSERISSTLNDECWPASL [MELOE-1, MELOE-1 whole antigen (46 amino acids)]” was tested, and the “recognition by specific CD4 T cell clones of DC loaded after fixation” value ([4]; autologous DC loaded after DC fixation) was “only a weak recognition” and the “reactivity of the four T cell clones against loaded autologous DC” value ([4]; iDC loaded with 1 μM in serum-free medium, matured, then fixed) was “reactive”.
RISSTLNDECWPA [32-44] was tested, and the “recognition by T cell clone” value ([1]; 4E2 T cell clone, compared with 31-44) was “recognized to a lower extent”.
In the case of SREQFLPSEGAAC [MELOE-112-24], the “recognition by T cell clone” value [5] is reported as “optimal shorter peptides”.
TSREQFLPSEGAA [MELOE-111-23] was tested, and the “recognition by T cell clone” value [5] was “optimal shorter peptides”.
